# Like-named read-outs stand apart in the source and are kept apart here.
# Assays:
# [1] = test system: secreted IL-8 by whole blood activated with TNF-α; experiment: Inhibition of TNF-α induced IL-8 in 50% human whole blood; type: cell-based; conditions: TNF-α (1 nM) induced IL-8, 50% human whole blood, read-out: WB TNF/IL8 IC50
# Protocol: Inhibition of TNF-α Induced IL-8 in 50% Human Whole Blood
# Test compounds were evaluated in vitro for the ability to inhibit the production of secreted IL-8 by whole blood activated with TNF-α. Fresh human whole blood was obtained from healthy, non-medicated volunteers in sodium heparin tubes.
# Compound Dilution—Assay Procedure
# 100 ul heparinized whole blood is plated into wells of 96 well flat bottom plates. 50 ul of either 4× compound or DMSO control (Final DMSO concentration is 0.1%) are added to the appropriate wells. Plates are incubated for 1 hour at 37 degrees Celsius. 50 ul of 4×TNF-α ([…], for a final concentration of 1 nM) or control (media alone) is added to the appropriate wells (Total volume=200 ul). Plates are incubated overnight (16-18 hours). 100 ul of supernatant is collected and stored in 96-well round bottom polypropylene plates at −80 degrees Celsius or assayed immediately for IL-8.
# Cytokines are measured on antibody (Ab) sandwich ECL based 96-well detection plates. 20 ul of supernatant are added to plate and plate is sealed and shaken at RT for 1 hour. 130 ul of detection Ab cocktail is added and plates are sealed and shaken for 1 hour in the dark at RT. Plates are read on MSD Sector HTS instrument. Data are analyzed and IC50 values generated using Activity Base and XI-fit programs.
# [2] = test system: TNF-α secretion by LPS-treated THP1 cells; experiment: Lipopolysaccharide-activated THP1 cell TNF production assay; type: cell-based; conditions: Homo sapiens, THP-1; LPS, 3 hours, THP1 cells; read-out: IC50 in the THP-1 cellular TNF production assay
# Protocol: Lipopolysaccharide-Activated THP1 Cell TNF Production Assay
# THP1 cells were resuspended in fresh THP1 media (RPMI 1640, 10% heat-inactivated FBS, 1×PGS, 1×NEAA, plus 30 μM βME) at a concentration of 1.5×10^6 cells per mL. One hundred microliters of cells per well were plated in a polystyrene 96-well tissue culture plate. 1.5 micrograms per mL of bacterial LPS was prepared in THP1 media and transferred to the first 11 columns of a 96-well polypropylene plate. Column 12 contained only THP1 media for the LO control. Compounds were dissolved in 100% DMSO and serially diluted 3 fold in a polypropylene 96-well microtiter plate (drug plate). Columns 6 and 12 were reserved as controls (HI controls and LO controls respectively) and contained only DMSO. 10 μL of LPS followed by one microliter of inhibitor compound from the drug plate was transferred to the cell plate. The treated cells were induced to synthesize and secrete TNF-α in a 37° C. humidified incubator with 5% CO2 for 3 hours. Fifty microliters of conditioned media was transferred to a 96-well MULTI-ARRAY™ 96-well small spot plate—custom coated with MAB610 containing 100 μL of 2× Read Buffer P supplemented with 0.34 nM AF210NA polyclonal Ab labeled with ruthenium (MSD-Sulfo-TAG™-NHS ester). After an overnight incubation at room temperature with shaking, the reaction was read on the Sector Imager™ 6000. […] The amount of secreted TNF-α in the presence of AMG compounds compared with that in the presence of DMSO vehicle alone (HI control) was calculated using the formula: % control (POC)=(cpd−average LO)/(average HI−averageLO)*100. Data (consisting of POC and inhibitor concentration in μM) was fitted to a 4-parameter equation (y=A+((B−A)/(1+((x/C)^D))), where A is the minimum y (POC) value, B is the maximum y (POC), C is the x (cpd concentration) at the point of inflection and D is the slope factor) using a Levenburg-Marquardt non-linear regression algorithm.
# [3] = biological target: recombinant human p38α (Homo sapiens, UniProt Q16539); experiment: Purified and activated recombinant human p38α HTRF kinase assay; type: biochemical; conditions: 1 nM p38α, 50 μM ATP, GST-ATF2 substrate, read-out: p38a IC50
# Sequence of recombinant human p38α (Q16539 whole entry): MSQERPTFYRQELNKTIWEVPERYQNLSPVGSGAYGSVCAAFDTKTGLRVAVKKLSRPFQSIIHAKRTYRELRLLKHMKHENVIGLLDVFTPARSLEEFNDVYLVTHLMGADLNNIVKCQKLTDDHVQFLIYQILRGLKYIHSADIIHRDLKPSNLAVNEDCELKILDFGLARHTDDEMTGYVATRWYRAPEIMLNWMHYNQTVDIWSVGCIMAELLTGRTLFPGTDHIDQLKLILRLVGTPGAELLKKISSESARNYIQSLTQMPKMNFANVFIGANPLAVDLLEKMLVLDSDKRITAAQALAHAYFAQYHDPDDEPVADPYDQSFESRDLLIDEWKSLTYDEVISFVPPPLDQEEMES
# Protocol: Purified and Activated Recombinant Human p38α Assay
# • Kinase Reaction Buffer: Kinase reaction buffer for p38α HTRF assays consists of 50 mM Tris-pH 7.5, 5 mM MgCl2, 0.1 mg/mL BSA, 100 μM Na3VO4 and 0.5 mM DTT. • HTRF Detection Buffer: HTRF detection buffer contains 100 mM HEPES-pH 7.5, 100 mM NaCl, 0.1% BSA, 0.05% Tween-20, and 10 mM EDTA. • Serial Dilution of Compounds: Compounds were dissolved in 100% DMSO and serially diluted (3 fold, 10 point) in a polypropylene 96-well microtiter plate (drug plate). The final starting concentration of compounds in the p38α enzymatic assays was 1 μM. Columns 6 and 12 (HI controls and LO controls respectively) in the drug plate were reserved as controls and contained only DMSO. • Kinase Reaction The p38α kinase reactions were carried out in a polypropylene 96-well black round bottom assay plate in total volume of 30 μL kinase reaction buffer. Appropriate concentration of purified and activated enzyme (recombinant human) was mixed with indicated concentration of ATP and 100 nM GST-ATF2-Avitag, in the presence or absence (HI control) of Compound. See table below for actual concentrations. In the absence of substrate, the background was measured as LO control. The reaction was allowed to incubate for 1 hour at RT. • Assay Reagent Concentrations: The final reagent concentrations were 1 nM p38α and 50 μM ATP. […] After 60 minutes incubation at room temperature, the assay plate was read in a Discovery Plate Reader. The wells were excited with coherent 320 nm light and the ratio of delayed ([…] post excitation) emissions at […] (native europium fluorescence) and 665 nm (europium fluorescence transferred to allophycocyanin—an index of substrate phosphorylation) was determined (Park et al, 1999). • Data Analysis: The proportion of substrate phosphorylated in the kinase reaction in the presence of compound compared with that phosphorylated in the presence of DMSO vehicle alone (HI control) was calculated using the formula: % control (POC)=(compound−average LO)/(average HI−average LO)*100. Data (consisting of POC and inhibitor concentration in μM) was fitted to a 4-parameter equation (y=A+((B−A)/(1+((x/C)^D))), where A is the minimum y (POC) value, B is the maximum y (POC), C is the x (compound concentration) at the point of inflection and D is the slope factor, using a Levenburg-Marquardt non-linear regression algorithm.
# The inhibition constant (Ki) of the inhibitor was estimated from the IC50 (compound concentration at the point of inflection C) using the Cheng-Prussof equation: Ki=IC50/(1+S/Km), where S is the ATP substrate concentration, and Km is the Michaelis constant for ATP as determined experimentally. All results were expressed as the mean±the standard error of the mean. Data acquisition and non-linear regression algorithms were performed using Activity Base v5.2 and XL-fit software v4.1 respectively. All data was archived using Activity Base v5.2 software.
Compound,IC50 ([1]; Homo sapiens) [nM],IC50 [1] [nM],IC50 [2] [nM],IC50 [3] [nM]
"Cc1ccc(NC(=O)C2CC2)cc1-c1cc2cnn(-c3ccc(F)cc3F)c2n(C)c1=O [Example 16, N-(3-(1-(2,4-difluorophenyl)-7-methyl-6-oxo-6,7-dihydro-1H-pyrazolo[3,4-b]pyridin-5-yl)-4-methylphenyl)cyclopropanecarboxamide]",≤ 100,73.6,≤ 175,–
"Cn1c(=O)c(-c2cc(C(=O)NC3CC3)ccc2CO)cc2cnn(-c3c(F)cccc3F)c21 [Example 32, N-cyclopropyl-3-(1-(2,6-difluorophenyl)-7-methyl-6-oxo-6,7-dihydro-1H-pyrazolo[3,4-b]pyridin-5-yl)-4-(hydroxymethyl)benzamide]",–,–,≤ 175,21
"Cn1c(=O)c(-c2cc(C#N)ccc2Cl)cc2cnn(-c3c(F)cccc3F)c21 [Example 33, 4-chloro-3-(1-(2,6-difluorophenyl)-7-methyl-6-oxo-6,7-dihydro-1H-pyrazolo[3,4-b]pyridin-5-yl)benzonitrile]",≥ 2500,–,–,–
"Cc1ccc(C(=O)NC2CC2)cc1-c1cc2cnn(-c3c(F)cccc3F)c2n(C)c1=S [Example 34, N-cyclopropyl-3-(1-(2,6-difluorophenyl)-7-methyl-6-thioxo-6,7-dihydro-1H-pyrazolo[3,4-b]pyridin-5-yl)-4-methylbenzamide]",–,–,≤ 175,2.6
"Cc1ccc(C(=O)NC2CC2)cc1-c1cc2cnn(-c3ccc(F)cc3F)c2n(CC(O)CO)c1=O (stereo not shown) [Example 35, N-cyclopropyl-3-(1-(2,4-difluorophenyl)-7-(2,3-dihydroxypropyl)-6-oxo-6,7-dihydro-1H-pyrazolo[3,4-b]pyridin-5-yl)-4-methylbenzamide]",–,–,≤ 175,34
"Cc1ccc(NC(=O)NC2CC2)cc1-c1cc2cnn(-c3c(F)cccc3F)c2n(C)c1=O [Example 36, 1-cyclopropyl-3-(3-(1-(2,6-difluorophenyl)-7-methyl-6-oxo-6,7-dihydro-1H-pyrazolo[3,4-b]pyridin-5-yl)-4-methylphenyl)urea]",261,–,≤ 175,–
"Cc1ccc(N)cc1-c1cc2cnn(-c3ccc(F)cc3F)c2n(C)c1=O [Example 37, 5-(5-amino-2-methylphenyl)-1-(2,4-difluorophenyl)-7-methyl-1,7-dihydro-6H-pyrazolo[3,4-b]pyridin-6-one]",326,–,≤ 175,–
"Cc1ccc(N)cc1-c1cc2cnn(-c3c(F)cccc3F)c2n(C)c1=O [Example 39, 5-(5-amino-2-methylphenyl)-1-(2,6-difluorophenyl)-7-methyl-1,7-dihydro-6H-pyrazolo[3,4-b]pyridin-6-one]",≤ 100,60,≤ 175,–
"Cc1ccc(I)cc1-c1cc2cnn(-c3c(F)cccc3F)c2n(C)c1=O [Example 40, 1-(2,6-difluorophenyl)-5-(5-iodo-2-methylphenyl)-7-methyl-1,7-dihydro-6H-pyrazolo[3,4-b]pyridin-6-one]",≥ 2500,–,–,–
"Cn1c(=O)c(-c2cc(C(=O)O)ccc2Cl)cc2cnn(-c3c(F)cccc3F)c21 [Example 42, 4-chloro-3-(1-(2,6-difluorophenyl)-7-methyl-6-oxo-6,7-dihydro-1H-pyrazolo[3,4-b]pyridin-5-yl)benzoic acid]",≥ 2500,–,≤ 175,–
"Cc1ccc(I)cc1-c1cc2cnn(-c3ccc(F)cc3F)c2n(C)c1=O [Example 43, 1-(2,4-difluorophenyl)-5-(5-iodo-2-methylphenyl)-7-methyl-1,7-dihydro-6H-pyrazolo[3,4-b]pyridin-6-one]",≥ 2500,–,–,–
"CCn1c(=O)c(-c2cc(C(=O)NC3CC3)ccc2C)cc2cnn(-c3ccc(F)cc3F)c21 [Example 46, N-cyclopropyl-3-(1-(2,4-difluorophenyl)-7-ethyl-6-oxo-6,7-dihydro-1H-pyrazolo[3,4-b]pyridin-5-yl)-4-methylbenzamide]",–,–,≤ 175,4.9
"Cc1ccc(C(=O)NC2CC2)cc1-c1cc2cnn(S(=O)(=O)C3CC3)c2n(C)c1=O [Example 47, N-cyclopropyl-3-(1-(cyclopropylsulfonyl)-7-methyl-6-oxo-6,7-dihydro-1H-pyrazolo[3,4-b]pyridin-5-yl)-4-methylbenzamide]",662,–,–,–
"Cn1c(=O)c(-c2cc(N)ccc2Cl)cc2cnn(-c3c(F)cccc3F)c21 [Example 48, 5-(5-amino-2-chlorophenyl)-1-(2,6-difluorophenyl)-7-methyl-1,7-dihydro-6H-pyrazolo[3,4-b]pyridin-6-one]",327,–,≤ 175,–
"Cc1ccc(C(=O)NC2CC2)cc1-c1cc2cnn(-c3ccc(F)cc3)c2n(C)c1=O [Example 52, N-cyclopropyl-3-(1-(4-fluorophenyl)-7-methyl-6-oxo-6,7-dihydro-1H-pyrazolo[3,4-b]pyridin-5-yl)-4-methylbenzamide]",–,–,≤ 175,6.1
"Cn1c(=O)c(-c2cc(C(=O)NC3CC3)ccc2Cl)cc2cnn(-c3ccc(F)cc3)c21 [Example 53, 4-chloro-N-cyclopropyl-3-(1-(4-fluorophenyl)-7-methyl-6-oxo-6,7-dihydro-1H-pyrazolo[3,4-b]pyridin-5-yl)benzamide]",–,–,≤ 175,6
"N-cyclopropyl-3-(1-(2,4-difluorophenyl)-7-methyl-6-thioxo-6,7-dihydro-1H-pyrazolo[3,4-b]pyridin-5-yl)-4-methylbenzenecarbothioamide [Example 51]",–,225,–,–

# Source: patent publication US7846944B2, “Pyrazolo-pyridinone compounds and methods of use thereof” (Amgen Inc., priority 2007, dated 2010)
